Reference: US9474730B2, “Methods and compositions for use with K-ras mediated disorders” (Board of Regents of the University of Texas System, priority 2012, dated 2016)
Structures can show the parent of a compound that is named as a salt.

Assays:
[1] = biological target: T1, GFP-K-rasG12V in MDCK or BHK cells (Homo sapiens, UniProt P01116, G12V); assay: Confocal fluorescence microscopy of GFP-tagged full length constitutively active Ras (G12V); type: cell-based, canine (MDCK), hamster (BHK); details: 48 h
T1 construct: MDCK and BHK cells expressing GFP-tagged full length constitutively active Ras (G12V) proteins; expressed in transfected cells
Experimental: FIG. 2: Illustrates that fendiline HCl mislocalizes GFP-K-rasG12V but not GFP-H-rasG12V: (A) MDCK or BHK [Baby Hamster Kidney] cells expressing GFP-K-rasG12V or GFP-H-rasG12V were grown on cover slips, treated with vehicle or fendiline HCl (4 μg/mL for MDCK and 6 μg/mL for BHK) for 48 h and fixed with paraformaldehyde. Cells were imaged using a confocal microscope. (B) BHK cells expressing GFP-K-rasG12V or GFP-H-rasG12V (green) were treated with vehicle or fendiline HCl (6 μg/mL) for 48 h. Following treatment, cells were fixed and immuno-labeled with antibodies against PDI (ER marker-red) or p58 (golgi marker-red). Colocalization between GFP and the respective marker protein is shown in yellow. Shown are representative images from 3 independent experiments wherein experimentation was performed in accordance with principles described herein;
Cells were further analyzed using fluorescence microscopy, where cells were grown on coverslips, treated with 1% vehicle (DMSO) or varying concentrations of selected compounds for 48 h, and fixed with 4% paraformaldehyde. The coverslips were mounted in Mowiol® and visualized by confocal microscopy (Nikon A1) using a 60× objective. The cells were immuno-staining, where cells were fixed, permeabilized in 0.1% Triton in PBS for 30 min, and blocked with 0.2% bovine serum albumin and 0.2% fish skin gelatin in PBS for 30 min. […]

[2] = biological target: T1, GFP-K-rasG12V in MDCK or BHK cells; assay: Cellular fractionation (P100/S100) with quantitative Western blotting, GFP-K-rasG12V; type: cell-based, canine (MDCK), hamster (BHK); details: 4 μg/mL for MDCK and 6 μg/mL for BHK, 48 hours, vs vehicle
Experimental: Following treatment, membrane (P100) and soluble (S100) protein fractions were prepared and analyzed by quantitative Western blotting.
(§1) Preparation of whole-cell lysates: cells were lysed in Buffer B (50 mM Tris [pH 7.5], 75 mM NaCl, 25 mM NaF, 5 mM MgCl2, 5 mM EGTA, 1 mM dithiothreitol, 100 μM NaVO4, 1% Nonidet P-40 plus protease inhibitors). Cellular fractionation: cells were incubated in Buffer A (10 mm Tris-HCl, pH 7.5, 25 mm NaF, 5 mm MgCl2, 1 mm EGTA, 1 mm dithiothreitol, 100 μm NaVO4 plus protease inhibitors) for 30 minutes on ice and lysed by passing through a 27 G needle 30 times. The post nuclear supernatant was centrifuged at 100,000 g for 30 minutes and the membrane pellet was resuspended in Buffer A containing 1% Triton X-100.
SDS-PAGE and Western blotting with the specified antibody were performed using 20 μg of each whole cell lysate/P100 fraction and volumes of S100 equal to that of the corresponding P100. Signal was detected by enhanced chemiluminescence (SuperSignal; Pierce, Thermo Fisher Scientific, Rockford, Ill.) and imaged by FluorChemQ (Alpha Inotech, San Leandro, Calif., USA). Quantification of intensities was performed using FluorChemQ software.

[3] = biological target: T2, GFP-H-rasG12V in MDCK or BHK cells (Homo sapiens, UniProt P01112, G12V); assay: Cellular fractionation (P100/S100) with quantitative Western blotting, GFP-H-rasG12V; type: cell-based, canine (MDCK), hamster (BHK); details: 4 μg/mL for MDCK and 6 μg/mL for BHK, 48 hours, vs vehicle
T2 construct: MDCK and BHK cells expressing GFP-tagged full length constitutively active Ras (G12V) proteins; expressed in transfected cells
Experimental: . Following treatment, membrane (P100) and soluble (S100) protein fractions were prepared and analyzed by quantitative Western blotting. Shown are representative Western blots (showing GFP-Ras) of membrane and soluble protein fractions from 3 independent experiments.
as §1
(§2) Quantification of intensities was performed using FluorChemQ software.

[4] = test system: Raf kinase activity in BHK cells stably expressing K-rasG12V; assay: Raf kinase assay on membrane fractions of treated cells (coupled MEK/ERK assay); type: cell-based, hamster; details: 6 μg/mL, 48 h; phosphorylation of recombinant ERK substrate
Experimental: FIG. 5: Illustrates that fendiline HCl inhibits Raf kinase activity and signaling downstream of oncogenic K-ras: BHK cells stably expressing K-rasG12V were treated with vehicle or fendiline HCl (6 μg/mL) for 48 h. (A) Raf kinase activity in membrane fractions prepared from the cells was measured in a coupled […] kinase assay. Data is shown as mean±SEM from 3 independent experiments. (B) ppMEK and ppERK in soluble protein fraction and pAkt levels in membrane protein fraction were measured by quantitative Western blotting. Actin and Akt were used as loading controls for soluble and membrane fractions, respectively. A representative blots are shown. Data is shown as mean±SEM from 3-4 independent experiments. Statistical significance was calculated using one way ANOVA and Student's T-test. (*=p<0.05), wherein experimentation was performed in accordance with principles described herein;
Membrane (P100) fractions were prepared from BHK or MDCK cells were dissolved in Buffer A containing 1% TritonX100. Solubilized P100 fractions were incubated with combinations of recombinant MEK and ERK in the presence of Mg^2+-ATP (40 mM and 0.5 mM, respectively) After 30 min at 30° C. with vigorous shaking, the pMEK and ppERK levels were determined by quantitative Western blotting.

[5] = test system: BHK cells expressing constitutively active CRaf (FLAG-C-Raf-DD-CAAX); assay: Signaling in cells expressing constitutively active CRaf, Western blotting; type: cell-based, hamster; details: 6 μg/mL, 48 h, serum starved BHK cells
Experimental: (§3) FIG. 6: Illustrates that fendiline HCl inhibition occurs at the level of Ras: Whole cell lysates from serum starved BHK cells expressing vector control, FLAG-C-Raf-DD-CAAX or Myc-B-Raf V600E treated with vehicle or fendiline HCl (6 μg/mL) for 48 h were analyzed by quantitative Western blotting. Representative Western blots of c-Raf, pMEK, pERK and Actin (loading control) are shown. Data is shown as mean±SEM from 3-4 independent experiments. Statistical significance was calculated using one way ANOVA and Student's T-test. (*=p<0.05), wherein experimentation was performed in accordance with principles described herein;
as §1, §2

[6] = test system: BHK cells expressing Myc-B-Raf V600E; assay: Signaling in cells expressing constitutively active BRaf, Western blotting; type: cell-based, hamster; details: 6 μg/mL, 48 h, serum starved BHK cells
Experimental: as §3, §1, §2

[7] = test system: cells expressing constitutively active N-Ras; assay: Signaling downstream of oncogenic N-ras; type: cell-based; details: data not shown
Experimental: as §1, §2

CC(NCCC(c1ccccc1)c1ccccc1)c1ccccc1 (centres unmarked) [fendiline HCl]
localization of GFP-K-rasG12V relative to ER (PDI) and Golgi (p58) markers ([1]; BHK cells, 6 μg/mL, immunofluorescence): partially mislocalizes to the ER and golgi
inhibition of plasma membrane localization, K isoform compared to H and N ([1]; GFP-tagged full length Ras (G12V), 4 μg/mL for MDCK and 6 μg/mL for BHK): more potent inhibitor of plasma membrane localization of the K isoform as compared to H (FIG. 2A) and N
soluble fraction of GFP-K-rasG12V [2]: increases the soluble fraction of GFP-K-rasG12V
localization of GFP-H-rasG12V (fractionation) [3]: does not alter the localization of GFP-H-rasG12V
reduction of the amount of active Raf compared to vehicle-treated control [4]: approximately 60%
signaling downstream of constitutively active CRaf [5]: had no effect on signaling downstream of constitutively active CRaf
signaling downstream of constitutively active BRaf [6]: inhibited signaling downstream of constitutively active BRaf
signaling downstream of oncogenic N-ras [7]: had no effect on signaling downstream of oncogenic N-ras
